Laboratory results published in patent US20110214196A1, “DEVELOPMENT OF HERBICIDE-RESISTANT GRASS SPECIES” (University of Georgia Research Foundation, priority 2008, published 2011).

Columns and labels:
[1] = tested on: callus tissue generated from the variety 'Seaspray'; experiment: Callus growth dose response to sethoxydim; assay type: cell-based, seashore paspalum (Paspalum vaginatum); settings: growth averaged over three consecutive 3-week subcultures
Description: The dose response of paspalum tissue in culture to sethoxydim rate was determined using callus tissue generated from the variety ‘Seaspray’ as a model cultivar. Effect of sethoxydim concentration on callus growth was determined by placing callus tissue from ‘Seaspray’ on MS/B5 medium (Murashige and Skoog. 1962. supra; Gamborg et al. 1968. supra) containing 2 mg/L 2-4,D and one of eight concentrations of sethoxydim. Herbicide rates were replicated 6 times and included concentrations of 0, 2.5, 5, 7.5, 10, 25, 50, and 100 μM sethoxydim. Sethoxydim was diluted in methanol and added after the autoclaved medium was cooled to approximately 55° C. (in order to prevent loss of activity from heat degradation). The medium was protected from photo-degradation by wrapping containers in aluminum foil prior to storage.
To measure callus growth, 0.5 gram of callus tissue was weighed, separated into nine equal pieces and placed in a 3×3 pattern on the solid medium of each plate. Six replicate plates for each of the eight sethoxydim concentrations was distributed on a rack in a growth room in a completely randomized design. At 21 days after plating, the tissue from each plate was weighed and recorded. For subculture, 0.5 gram from each plate was obtained for the next growth period. This process was continued for nine weeks, providing three growth measurements for each plate. […]

[2] = tested on: Mauna Kea line regenerated from tissue culture (TCC); experiment: Whole plant greenhouse dose-response, Poast herbicide (Example 9); assay type: in vivo, seashore paspalum (Paspalum vaginatum); settings: for injury score: TCC
Text: (§1) A second greenhouse experiment was initiated to evaluate SR plants regenerated from a second sethoxydim-resistant cell line, Line B, for sethoxidim resistance at the whole plant level. In the previous experiment (Example 8), minor injury occurred on Line A at higher concentrations of Segment™ sethoxydim herbicide. These injury symptoms were more indicative of surfactant injury rather than sethoxydim injury. […] Plants were transplanted to Cone-tainers™ measuring 4×14 cm and tapering to 1 cm (Stuewe and Sons Inc., Corvallis, Oreg.) containing a 1:1 mix of Fafard® 3B mix and sand and placed on benches under sodium lights in a greenhouse with a 16-h photoperiod maintained at 27/32° C. day/night for approximately two weeks prior to application of herbicide treatments.
(§2) Each of the four genotypes (Line A, Line B, PT and TCC) were treated with 0, 50, 100, 200, 400, 800, 1600, 3200 and 6400 g ai ha^−1 rates of sethoxydim using Poast™ herbicide (BASF Corp., Florham Park, N.J.). All herbicide rates were applied at a spray volume of 1871 ha^−1 in an experimental spray chamber, and after drying, the plants were returned to the greenhouse bench and maintained under the conditions described above. Visual estimates of crop injury were recorded at 16, 21, and 28 d after treatment (DAT) using a scale of 0 to 100, where 0 equals no injury and 100 equals complete death. The experiment was a four by nine factorial with four genotypes and nine herbicide rates. Treatments were arranged in a randomized complete block design. Four replications were used for all four genotypes. Data were first analyzed using a two-way analysis of variance (SAS, 2008) and subsequently analyzed within herbicide rate. Differences among genotype means at each herbicide rate were determined using Fisher's Least Significant Difference (LSD).

[3] = tested on: sethoxydim-resistant Line A; experiment: as above; assay type: in vivo, seashore paspalum (Paspalum vaginatum)
Text: as §1, §2

[4] = tested on: original parental line, Mauna Kea (PT); experiment: as above; assay type: in vivo, seashore paspalum (Paspalum vaginatum)
Text: as §1, §2

[5] = tested on: sethoxydim-resistant Line B; experiment: as above; assay type: in vivo, seashore paspalum (Paspalum vaginatum)
Text: as §1, §2

[6] = tested on: Large crabgrass (Digitaria sanguinalis); experiment: Large crabgrass dose response study, plants from sod farm seed; assay type: in vivo
Description: (§3) Plants were grown from seed collected from a turfgrass sod farm near where sethoxydim had been continuously used for twelve years. Seeds were planted in 250 mL styrofoam cups with a potting mixture of pure sand in a glasshouse with supplemental lighting (300 uE/m2/s) and 30/25 temperature. Plants were watered once daily and fertilized once a week. Large crabgrass plants were treated with herbicides when 3-5 cm tall in a dose response study. Four herbicides (sethoxydim, fluazifop, clethodim, and pinoxaden) were applied at […]. Plant injury was observed 7 and 14 DAT. The experimental design consisted of a randomized complete block design with three replications. The experiment was replicated in time.

[7] = tested on: Large crabgrass (Digitaria sanguinalis) F2; experiment: Large crabgrass dose response study, F2 from self-pollinated surviving plants; assay type: in vivo
Description: as §3
In response to all four herbicides, the plants initially illutrated typical ACCase symptomology, but recovered in 7-14 days after treatment (DAT). […] Seeds from self-pollinated surviving large crabgrass plants were collected and analyzed using the same dose response design as state before. […] The ED50 was approximately 10 times greater for the resistant (R) population than that for the wild type (S) population.

[8] = at rates of 400 g ai ha^−1, scale of 0 to 100
[9] = at rates of 1600 g ai ha^−1 or more
[10] = all rates up to 6400 g ai ha^−1

CCC/C(=N\OCC)C1=C(O)CC(CC(C)SCC)CC1=O (stereo not drawn) [sethoxydim, 2-[1-(ethoxyimino)-butyl]-5-[2-(ethylthio)propyl]-3-hydroxy-2-cylohexen-1-one]
lowest herbicide rate to totally inhibit callus growth [1]: 7.5 µM
LD50 ([2]; TC): 782 g ai ha^−1
injury score [2, 8]: ≥ 27
injury score [2, 9]: ≥ 80%
LD50 [3]: > 6400 g ai ha^−1
maximum injury score observed [3, 10]: less than 20%
LD50 [4]: 720 g ai ha^−1
injury score [4, 8]: ≥ 27
injury score [4, 9]: ≥ 80%
LD50 [5]: > 6400 g ai ha^−1
maximum injury score observed [5, 10]: less than 20%
resistance or susceptibility of this population of large crabgrass ([6]; conclusion from ED50 values): resistant
ED50 of resistant (R) population relative to wild type (S) population ([6]; crabgrass, FIG. 17): approximately 10 times
effective dose required to cause 50% injury (ED50) ([6]; large crabgrass grown from sod farm seed, treated when 3-5 cm tall): 245±37 g ai/ha
effective dose required to cause 50% injury (ED50) [7]: 179±4 g ai/ha
